Assay results published in the NIST ThermoML archive (doi:10.1021/je100362p).

Key:
[1] = xn = mol fraction of the nth substance listed; settings: 101 kPa, Liquid; for speed of sound: Sing-around technique in a fixed-path interferometer
[2] = refractive index (Na D-line) (dimensionless); xn = mol fraction of the nth substance listed; settings: 101 kPa, Liquid, Standard Abbe refractometry

Cc1ccc(O)cc1 [4-methylphenol] + CCCCCCCCCCO
Settings | mass density, 298.15 K [kg/m3] | mass density, 303.15 K [kg/m3] | mass density, 308.15 K [kg/m3] | refractive index, 298.15 K | refractive index, 303.15 K | refractive index, 308.15 K | speed of sound, 298.15 K [m/s] | speed of sound, 303.15 K [m/s] | speed of sound, 308.15 K [m/s]
[1], x1 = 0.079 | 836.102 | 832.641 | 829.175 | – | – | – | 1384.9 | 1367.8 | 1350.9
[1], x1 = 0.1424 | 844.261 | 840.772 | 837.278 | – | – | – | 1389 | 1371.9 | 1355.1
[1], x1 = 0.2213 | 855.053 | 851.531 | 847.999 | – | – | – | 1394 | 1376.9 | 1360
[1], x1 = 0.2915 | 865.315 | 861.764 | 858.196 | – | – | – | 1398.6 | 1381.6 | 1364.7
[1], x1 = 0.3611 | 876.182 | 872.603 | 869.001 | – | – | – | 1403.5 | 1386.4 | 1369.6
[1], x1 = 0.418 | 885.652 | 882.051 | 878.417 | – | – | – | 1407.7 | 1390.8 | 1373.9
[1], x1 = 0.4915 | 898.718 | 895.088 | 891.418 | – | – | – | 1413.7 | 1396.8 | 1379.9
[1], x1 = 0.5566 | 911.201 | 907.546 | 903.844 | – | – | – | 1419.6 | 1402.7 | 1385.9
[1], x1 = 0.6321 | 926.903 | 923.218 | 919.477 | – | – | – | 1427.5 | 1410.7 | 1394
[1], x1 = 0.7041 | 943.248 | 939.531 | 935.758 | – | – | – | 1436.1 | 1419.4 | 1402.8
[1], x1 = 0.7628 | 957.751 | 954.009 | 950.207 | – | – | – | 1444 | 1427.3 | 1411
[1], x1 = 0.8229 | 973.785 | 970.012 | 966.196 | – | – | – | 1453.2 | 1436.7 | 1420.2
[1], x1 = 0.8793 | 990.126 | 986.325 | 982.485 | – | – | – | 1462.3 | 1446.2 | 1429.9
[1], x1 = 0.9382 | 1008.68 | 1004.85 | 1000.99 | – | – | – | 1474.2 | 1458 | 1442.4
[1], x1 = 1 | 1030.14 | 1026.28 | 1022.38 | – | – | – | 1486.4 | 1470.7 | 1455
[2], x1 = 0.079 | – | – | – | 1.43878 | 1.43659 | 1.43439 | – | – | –
[2], x1 = 0.1424 | – | – | – | 1.44253 | 1.44025 | 1.43792 | – | – | –
[2], x1 = 0.2213 | – | – | – | 1.44759 | 1.44524 | 1.44279 | – | – | –
[2], x1 = 0.2915 | – | – | – | 1.45252 | 1.45006 | 1.44748 | – | – | –
[2], x1 = 0.3611 | – | – | – | 1.45786 | 1.45529 | 1.45263 | – | – | –
[2], x1 = 0.418 | – | – | – | 1.46259 | 1.45994 | 1.45719 | – | – | –
[2], x1 = 0.4915 | – | – | – | 1.46921 | 1.46649 | 1.46363 | – | – | –
[2], x1 = 0.5566 | – | – | – | 1.47562 | 1.47279 | 1.46987 | – | – | –
[2], x1 = 0.6321 | – | – | – | 1.48379 | 1.48088 | 1.47785 | – | – | –
[2], x1 = 0.7041 | – | – | – | 1.49234 | 1.48935 | 1.48629 | – | – | –
[2], x1 = 0.7628 | – | – | – | 1.49988 | 1.49689 | 1.49381 | – | – | –
[2], x1 = 0.8229 | – | – | – | 1.50829 | 1.50524 | 1.50212 | – | – | –
[2], x1 = 0.8793 | – | – | – | 1.51677 | 1.51369 | 1.51055 | – | – | –
[2], x1 = 0.9382 | – | – | – | 1.52626 | 1.52321 | 1.52011 | – | – | –
[2], x1 = 1 | – | – | – | 1.537 | 1.534 | 1.531 | – | – | –
